Values joined by “and” are separate entries in the source; they are usually repeats but may differ in a detail not shown here. Identical values can stand only once.
Experiments:
[1] = test system: GCIY; test: cells; format: functional, cell-based, Homo sapiens;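 further: growth inhibition of the human GCIY cell line, read out by a cell viability assay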
Description: SANGER: Inhibition of human GCIY cell growth in a cell viability assay.

[2] = test system: CFPAC-1; test: cells; format: functional, cell-based; settings: Homo sapiens;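 further: cell viability readout used to gauge suppression of CFPAC-1 cell proliferation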
Description: SANGER: Inhibition of human CFPAC-1 cell growth in a cell viability assay.

[3] = test system: EB2; test: cells; format: functional, cell-based; settings: Homo sapiens;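 further: growth inhibition of EB2 cells, read out with a cell viability assay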
Description: SANGER: Inhibition of human EB2 cell growth in a cell viability assay.

[4] = test system: EC-GI-10; test: cells; format: functional, cell-based, Homo sapiens
Description: SANGER: Inhibition of human EC-GI-10 cell growth in a cell viability assay.

[5] = test system: PF-382; test: cells; format: functional, cell-based; settings: Homo sapiens
Description: SANGER: Inhibition of human PF-382 cell growth in a cell viability assay.

[6] = test system: SNU-387; test: cells; format: functional, cell-based, Homo sapiens
Description: SANGER: Inhibition of human SNU-387 cell growth in a cell viability assay.

[7] = test system: EFO-21; test: cells; format: functional, cell-based, Homo sapiens;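 further: growth inhibition of EFO-21 cells measured with a viability assay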
Description: SANGER: Inhibition of human EFO-21 cell growth in a cell viability assay.

[8] = test system: NCI-H522; test: cells; format: functional, cell-based, Homo sapiens; settings: nci-h522;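 further: cell viability assay measuring growth inhibition of human NCI-H522 cells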
Description: SANGER: Inhibition of human NCI-H522 cell growth in a cell viability assay.

[9] = test system: COLO-668; test: cells; format: functional, cell-based, Homo sapiens
Description: SANGER: Inhibition of human COLO-668 cell growth in a cell viability assay.

[10] = test system: BOKU; test: cells; format: functional, cell-based; settings: Homo sapiens;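 further: growth inhibition of the human BOKU cell line, read out by a cell viability assay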
Description: SANGER: Inhibition of human BOKU cell growth in a cell viability assay.

[11] = test system: NCI-H1573; test: cells; format: functional, cell-based; settings: Homo sapiens;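 further: growth inhibition of NCI-H1573 cells, read out with a cell viability assay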
Description: SANGER: Inhibition of human NCI-H1573 cell growth in a cell viability assay.

[12] = test system: NCI-H187; test: cells; format: functional, cell-based; settings: Homo sapiens;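 further: growth inhibition of NCI-H187 cells, read out as cell viability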
Description: SANGER: Inhibition of human NCI-H187 cell growth in a cell viability assay.

[13] = test system: IMR-5; test: cells; format: functional, cell-based; settings: Homo sapiens;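 further: growth inhibition of human IMR-5 cells, read out with a cell viability assay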
Description: SANGER: Inhibition of human IMR-5 cell growth in a cell viability assay.

[14] = test system: HCC1187; test: cells; format: functional, cell-based, Homo sapiens;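 further: growth inhibition of HCC1187 cells, read out with a cell viability assay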
Description: SANGER: Inhibition of human HCC1187 cell growth in a cell viability assay.

[15] = test system: SU-DHL-1; test: SANGER: Inhibition of human SU-DHL-1 cell growth in a cell viability assay.; format: functional, cell-based
[16] = test system: NCI-H2342; test: cells; format: functional, cell-based; settings: Homo sapiens;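 further: growth inhibition of the cancer cell line, determined with a cell viability assay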
Description: SANGER: Inhibition of human NCI-H2342 cell growth in a cell viability assay.

[17] = test system: NCI-H1666; test: cells; format: functional, cell-based; settings: Homo sapiens;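 further: growth inhibition of the cell line, read out with a cell viability assay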
Description: SANGER: Inhibition of human NCI-H1666 cell growth in a cell viability assay.

[18] = test system: HSC-3; test: cells; format: functional, cell-based, Homo sapiens
Description: SANGER: Inhibition of human HSC-3 cell growth in a cell viability assay.

[19] = test system: ABC-1; test: cells; format: functional, cell-based, Homo sapiens;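 further: growth inhibition of human ABC-1 cells, read out by a cell viability assay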
Description: SANGER: Inhibition of human ABC-1 cell growth in a cell viability assay.

[20] = test system: LP-1; test: cells; format: functional, cell-based; settings: Homo sapiens;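 further: growth inhibition of human LP-1 cells, with the read-out taken from a cell viability assay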
Description: SANGER: Inhibition of human LP-1 cell growth in a cell viability assay.

[21] = test system: RL95-2; test: cells; format: functional, cell-based; settings: Homo sapiens;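 further: RL95-2 growth inhibition determined through a cell viability readout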
Description: SANGER: Inhibition of human RL95-2 cell growth in a cell viability assay.

[22] = test system: NCI-H1882; test: cells; format: functional, cell-based; settings: Homo sapiens;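 further: growth inhibition of the cell line, determined with a viability assay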
Description: SANGER: Inhibition of human NCI-H1882 cell growth in a cell viability assay.

[23] = test system: IST-SL2; test: cells; format: functional, cell-based; settings: Homo sapiens;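 further: growth inhibition of human IST-SL2 cells, read out by a cell viability assay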
Description: SANGER: Inhibition of human IST-SL2 cell growth in a cell viability assay.

[24] = test system: D-263MG; test: cells; format: functional, cell-based, Homo sapiens
Description: SANGER: Inhibition of human D-263MG cell growth in a cell viability assay.

[25] = test system: EPLC-272H; test: cells; format: functional, cell-based; settings: Homo sapiens
Description: SANGER: Inhibition of human EPLC-272H cell growth in a cell viability assay.

[26] = test system: SBC-5; test: cells; format: functional, cell-based, Homo sapiens;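 further: cell viability assay read-out, IC50 is the concentration that inhibits growth of the cells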
Description: SANGER: Inhibition of human SBC-5 cell growth in a cell viability assay.

[27] = test system: HCC1599; test: cells; format: functional, cell-based; settings: Homo sapiens;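 further: growth inhibition of HCC1599 cells, read out in a cell viability assay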
Description: SANGER: Inhibition of human HCC1599 cell growth in a cell viability assay.

[28] = test system: 23132-87; test: cells; format: functional, cell-based, Homo sapiens
Description: SANGER: Inhibition of human 23132-87 cell growth in a cell viability assay.

[29] = test system: SIG-M5; test: cells; format: functional, cell-based; settings: Homo sapiens;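 further: cell viability assay read-out, measuring how strongly growth of cultured human SIG-M5 cells is inhibited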
Description: SANGER: Inhibition of human SIG-M5 cell growth in a cell viability assay.

[30] = test system: Raji; test: cells; format: functional, cell-based; settings: Homo sapiens;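 further: cell viability assay measuring inhibition of Raji cell growth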
Description: SANGER: Inhibition of human Raji cell growth in a cell viability assay.

[31] = test system: RL; test: cells; format: functional, cell-based; settings: Homo sapiens
Description: SANGER: Inhibition of human RL cell growth in a cell viability assay.

[32] = test system: SNU-16; test: cells; format: functional, cell-based; settings: Homo sapiens;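 further: growth inhibition of human SNU-16 cells, determined with a cell viability readout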
Description: SANGER: Inhibition of human NCI-SNU-16 cell growth in a cell viability assay.

[33] = test system: IGR-1; test: cells; format: functional, cell-based, Homo sapiens;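 further: growth inhibition of human IGR-1 cells, read out with a cell viability assay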
Description: SANGER: Inhibition of human IGR-1 cell growth in a cell viability assay.

[34] = test system: WSU-NHL; test: cells; format: functional, cell-based; settings: Homo sapiens;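 further: growth inhibition of human WSU-NHL cells, read out with a cell viability assay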
Description: SANGER: Inhibition of human WSU-NHL cell growth in a cell viability assay.

[35] = test system: CMK; test: cells; format: functional, cell-based; settings: Homo sapiens;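 further: growth inhibition of CMK cells, read out as cell viability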
Description: SANGER: Inhibition of human CMK cell growth in a cell viability assay.

[36] = test system: MDA-MB-134-VI; test: cells; format: functional, cell-based; settings: Homo sapiens
Description: SANGER: Inhibition of human MDA-MB-134-VI cell growth in a cell viability assay.

[37] = test system: NCI-H1963; test: cells; format: functional, cell-based; settings: Homo sapiens;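 further: cell growth inhibition of the human line, determined with a cell viability assay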
Description: SANGER: Inhibition of human NCI-H1963 cell growth in a cell viability assay.

[38] = test system: KARPAS-422; test: cells; format: functional, cell-based; settings: Homo sapiens
Description: SANGER: Inhibition of human KARPAS-422 cell growth in a cell viability assay.

[39] = test system: EM-2; test: cells; format: functional, cell-based; settings: Homo sapiens;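 further: growth inhibition of EM-2 cells, read out with a cell viability assay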
Description: SANGER: Inhibition of human EM-2 cell growth in a cell viability assay.

[40] = test system: RPMI-2650; test: cells; format: functional, cell-based, Homo sapiens
Description: SANGER: Inhibition of human RPMI-2650 cell growth in a cell viability assay.

[41] = test system: LC4-1; test: cells; format: functional, cell-based; settings: Homo sapiens;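 further: growth inhibition of LC4-1 cells, read out with a cell viability assay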
Description: SANGER: Inhibition of human LC4-1 cell growth in a cell viability assay.

[42] = test system: FaDu; test: cells; format: functional, cell-based, Homo sapiens;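 further: cell viability readout of growth inhibition in FaDu cells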
Description: SANGER: Inhibition of human FADU cell growth in a cell viability assay.

[43] = test system: SCC-4; test: cells; format: functional, cell-based, Homo sapiens;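 further: growth inhibition of human SCC-4 cells, read out as cell viability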
Description: SANGER: Inhibition of human SCC-4 cell growth in a cell viability assay.

[44] = test system: 8-MG-BA; test: cells; format: functional, cell-based, Homo sapiens;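 further: growth inhibition of 8-MG-BA cells, read out with a cell viability assay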
Description: SANGER: Inhibition of human 8-MG-BA cell growth in a cell viability assay.

[45] = test system: KNS-62; test: cells; format: functional, cell-based; settings: Homo sapiens;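 further: inhibition of cell growth, read out with a cell viability assay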
Description: SANGER: Inhibition of human KNS-62 cell growth in a cell viability assay.

[46] = test system: NCI-H716; test: cells; format: functional, cell-based; settings: Homo sapiens;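 further: growth inhibition of human NCI-H716 cells, measured by a cell viability assay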
Description: SANGER: Inhibition of human NCI-H716 cell growth in a cell viability assay.

[47] = test system: L-428; test: cells; format: functional, cell-based; settings: Homo sapiens
Description: SANGER: Inhibition of human L-428 cell growth in a cell viability assay.

[48] = test system: ECC4; test: cells; format: functional, cell-based; settings: Homo sapiens;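 further: growth inhibition of ECC4 cells, read out with a cell viability assay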
Description: SANGER: Inhibition of human ECC4 cell growth in a cell viability assay.

[49] = test system: UACC-812; test: cells; format: functional, cell-based; settings: Homo sapiens
Description: SANGER: Inhibition of human UACC-812 cell growth in a cell viability assay.

[50] = test system: SW872; test: cells; format: functional, cell-based, Homo sapiens;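 further: growth inhibition of SW872 cells, read out by a viability assay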
Description: SANGER: Inhibition of human SW872 cell growth in a cell viability assay.

[51] = test system: RPMI-6666; test: cells; format: functional, cell-based; settings: Homo sapiens
Description: SANGER: Inhibition of human RPMI-6666 cell growth in a cell viability assay.

[52] = test system: YT; test: cells; format: functional, cell-based; settings: Homo sapiens
Description: SANGER: Inhibition of human YT cell growth in a cell viability assay.

[53] = test system: COLO-684; test: cells; format: functional, cell-based; settings: Homo sapiens
Description: SANGER: Inhibition of human COLO-684 cell growth in a cell viability assay.

[54] = test system: H-EMC-SS; test: cells; format: functional, cell-based; settings: Homo sapiens
Description: SANGER: Inhibition of human H-EMC-SS cell growth in a cell viability assay.

[55] = test system: EHEB; test: cells; format: functional, cell-based; settings: Homo sapiens;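 further: growth inhibition of human EHEB cells, read out with a cell viability assay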
Description: SANGER: Inhibition of human EHEB cell growth in a cell viability assay.

[56] = test system: NBsusSR; test: cells; format: functional, cell-based; settings: Homo sapiens;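 further: growth inhibition of the human cell line, read out with a cell viability assay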
Description: SANGER: Inhibition of human NBsusSR cell growth in a cell viability assay.

[57] = test system: ECC10; test: cells; format: functional, cell-based; settings: Homo sapiens;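 further: growth inhibition of ECC10 cells, read out by a cell viability assay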
Description: SANGER: Inhibition of human ECC10 cell growth in a cell viability assay.

[58] = test system: TGBC11TKB; test: cells; format: functional, cell-based; settings: Homo sapiens;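 further: growth inhibition of human TGBC11TKB cells, measured by a cell viability assay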
Description: SANGER: Inhibition of human TGBC11TKB cell growth in a cell viability assay.

Question: `Cc1cc([C@@H](C)Nc2ccccc2C(=O)O)c2nc(N3CCOCC3)cc(=O)n2c1` [AZD-6482] was tested. Which IC50 ([1]; gciy) did it give?
Answer: > 5.12 µM and 2.2 µM

Question: And the IC50 [2]?
Answer: > 5.12 µM

Question: What about the IC50 [3] of the same compound?
Answer: 1.75 µM

Question: What about the IC50 ([4]; ec-gi-10) of the same compound?
Answer: > 5.12 µM

Question: What about the IC50 [5] of the same compound?
Answer: > 5.12 µM

Question: What about the IC50 ([6]; snu-387) of the same compound?
Answer: > 5.12 µM

Question: What about the IC50 ([7]; efo-21) of the same compound?
Answer: 5.04 µM and > 5.12 µM

Question: And the IC50 [8]?
Answer: > 5.12 µM

Question: And the IC50 ([9]; colo-668)?
Answer: > 5.12 µM

Question: And the IC50 [10]?
Answer: > 5.12 µM

Question: What about the IC50 [11] of the same compound?
Answer: > 5.12 µM

Question: And the IC50 [12]?
Answer: > 5.12 µM

Question: What about the IC50 [13] of the same compound?
Answer: > 5.12 µM

Question: And the IC50 ([14]; Homo sapiens, HCC1187)?
Answer: > 5.12 µM

Question: What about the IC50 ([14]; hcc1187) of the same compound?
Answer: > 5.12 µM

Question: And the IC50 [15]?
Answer: 0.568 µM

Question: What about the IC50 [16] of the same compound?
Answer: 0.843 µM

Question: And the IC50 [17]?
Answer: > 5.12 µM

Question: What about the IC50 ([18]; hsc-3) of the same compound?
Answer: > 5.12 µM

Question: What about the IC50 ([19]; abc-1) of the same compound?
Answer: > 5.12 µM

Question: What about the IC50 [20] of the same compound?
Answer: > 5.12 µM

Question: What about the IC50 [21] of the same compound?
Answer: > 5.12 µM

Question: What about the IC50 [22] of the same compound?
Answer: > 5.12 µM

Question: And the IC50 [23]?
Answer: > 5.12 µM

Question: And the IC50 ([24]; d-263mg)?
Answer: > 5.12 µM and 2.17 µM

Question: And the IC50 [25]?
Answer: > 5.12 µM

Question: What about the IC50 ([26]; Homo sapiens, SBC-5) of the same compound?
Answer: > 5.12 µM

Question: What about the IC50 ([26]; sbc-5) of the same compound?
Answer: > 5.12 µM

Question: And the IC50 [27]?
Answer: > 5.12 µM

Question: And the IC50 [28]?
Answer: 3.36 µM

Question: What about the IC50 ([28]; Homo sapiens) of the same compound?
Answer: > 5.12 µM

Question: What about the IC50 [29] of the same compound?
Answer: > 5.12 µM

Question: And the IC50 [30]?
Answer: > 5.12 µM

Question: What about the IC50 [31] of the same compound?
Answer: > 5.12 µM

Question: What about the IC50 [32] of the same compound?
Answer: > 5.12 µM

Question: And the IC50 ([33]; igr-1)?
Answer: > 5.12 µM

Question: What about the IC50 [34] of the same compound?
Answer: > 5.12 µM

Question: And the IC50 [35]?
Answer: 4.57 µM

Question: And the IC50 [36]?
Answer: > 5.12 µM

Question: And the IC50 [37]?
Answer: > 5.12 µM

Question: What about the IC50 [38] of the same compound?
Answer: 1.54 µM

Question: And the IC50 [39]?
Answer: > 5.12 µM

Question: What about the IC50 ([40]; Homo sapiens, RPMI-2650) of the same compound?
Answer: > 5.12 µM

Question: And the IC50 ([40]; rpmi-2650)?
Answer: > 5.12 µM

Question: And the IC50 [41]?
Answer: > 5.12 µM

Question: And the IC50 ([42]; Homo sapiens, FaDu)?
Answer: > 5.12 µM

Question: And the IC50 ([42]; fadu)?
Answer: > 5.12 µM

Question: And the IC50 ([43]; scc-4)?
Answer: > 5.12 µM

Question: And the IC50 ([44]; 8-mg-ba)?
Answer: > 5.12 µM

Question: And the IC50 [45]?
Answer: > 5.12 µM

Question: What about the IC50 [46] of the same compound?
Answer: > 5.12 µM

Question: And the IC50 [47]?
Answer: > 5.12 µM

Question: And the IC50 [48]?
Answer: > 5.12 µM

Question: And the IC50 [49]?
Answer: > 5.12 µM

Question: And the IC50 ([50]; sw872)?
Answer: > 5.12 µM and 3.09 µM

Question: And the IC50 [51]?
Answer: 0.644 µM

Question: What about the IC50 [52] of the same compound?
Answer: 0.121 µM

Question: And the IC50 [53]?
Answer: 2.2 µM

Question: What about the IC50 [54] of the same compound?
Answer: > 5.12 µM

Question: And the IC50 [55]?
Answer: 2.98 µM

Question: With `O=C(NOCC1CC1)c1ccc(F)c(F)c1Nc1ccc(I)cc1Cl` [CI-1040] as the compound, how does the IC50 ([1]; Homo sapiens, GCIY) read?
Answer: > 10 µM

Question: What about the IC50 [2] of the same compound?
Answer: > 10 µM

Question: And the IC50 ([4]; Homo sapiens, EC-GI-10)?
Answer: > 10 µM

Question: And the IC50 [56]?
Answer: 5.57 µM

Question: What about the IC50 ([6]; Homo sapiens, SNU-387) of the same compound?
Answer: > 10 µM

Question: And the IC50 ([7]; Homo sapiens, EFO-21)?
Answer: > 10 µM

Question: What about the IC50 ([9]; Homo sapiens, COLO-668) of the same compound?
Answer: > 10 µM

Question: What about the IC50 [11] of the same compound?
Answer: > 10 µM

Question: And the IC50 [57]?
Answer: 8.03 µM

Question: What about the IC50 ([14]; Homo sapiens, HCC1187) of the same compound?
Answer: > 10 µM

Question: What about the IC50 [16] of the same compound?
Answer: > 10 µM

Question: And the IC50 [17]?
Answer: 6.08 µM

Question: What about the IC50 ([18]; Homo sapiens, HSC-3) of the same compound?
Answer: 3.23 µM

Question: What about the IC50 ([19]; Homo sapiens, ABC-1) of the same compound?
Answer: > 10 µM

Question: And the IC50 ([24]; Homo sapiens, D-263MG)?
Answer: 5.88 µM

Question: What about the IC50 [25] of the same compound?
Answer: 5 µM

Question: What about the IC50 ([26]; Homo sapiens, SBC-5) of the same compound?
Answer: > 10 µM

Question: And the IC50 ([28]; Homo sapiens)?
Answer: 5.17 µM

Question: What about the IC50 ([33]; Homo sapiens, IGR-1) of the same compound?
Answer: > 10 µM

Question: And the IC50 [39]?
Answer: 2.07 µM

Question: What about the IC50 ([40]; Homo sapiens, RPMI-2650) of the same compound?
Answer: > 10 µM

Question: And the IC50 ([42]; Homo sapiens, FaDu)?
Answer: 5.56 µM

Question: What about the IC50 ([43]; Homo sapiens, SCC-4) of the same compound?
Answer: > 10 µM

Question: And the IC50 ([44]; Homo sapiens, 8-MG-BA)?
Answer: > 10 µM

Question: What about the IC50 [45] of the same compound?
Answer: 2.51 µM

Question: And the IC50 [47]?
Answer: > 10 µM

Question: What about the IC50 [58] of the same compound?
Answer: > 10 µM

Question: What about the IC50 ([50]; Homo sapiens, SW872) of the same compound?
Answer: > 10 µM

Question: And the IC50 [53]?
Answer: > 10 µM

Question: What about the IC50 [54] of the same compound?
Answer: 1.3 µM

Reference: ChEMBL document CHEMBL1201861, “Genomics of Drug Sensitity in Cancer screening data, Wellcome Trust Sanger Institute”
